Data from patent publication US20170209605A1, “CARBOHYDRATE FUNCTIONALIZED CATANIONIC SURFACTANT VESICLES FOR DRUG DELIVERY” (University of Maryland, College Park, priority 2007, published 2017).

Experiment: Incorporation of glycoconjugate into SDBS-rich vesicles (SEC, colorimetric detection)
Format: physicochemical
Settings: SDBS/CTAT vesicles, twelve carbon tail
Text: In an experiment, glycoconjugates consisting of eight carbon tails were used. In all SDBS-rich vesicle test cases 18-25% of the conjugate eluted with the vesicle fractions. At the incorporation levels summarized in Table 1, the ratio of carbohydrate conjugate to surfactant is approximately 1:100. […] In another experiment, a glucose glycoconjugate with a twelve carbon tail, n-dodecyl-β-D-glucopyranoside (C12-glucose), was used. […] The method for preparing these vesicles is now described. Vesicles were prepared with the surfactants […], and C12-glu. […] Total surfactant concentration was kept constant at 27 mM. The mole ratio of SDBS to CTAT was 3:1 in all cases (70:30 w/w). For vesicle samples containing different mole fractions of C12-glu, the amount of SDBS and CTAT was adjusted accordingly to keep the stated ratio of ionic surfactants constant. […] Samples were then passed through a 0.45 μm syringe filter to remove impurity particles such as dust.

For `CCCCCCCCCCCCO[C@@H]1O[C@H](CO)[C@@H](O)[C@H](O)[C@H]1O` [C12-glucose, n-dodecyl-β-D-glucopyranoside], the “share of the vesicle bilayer that can be composed of the glycoconjugate” value was “up to 40 mole percent”.
